Measured values from ChEMBL document CHEMBL1125544, “Novel thiosemicarbazones derived from formyl- and acyldiazines: synthesis, effects on cell proliferation, and synergism with antiviral agents” (1992).
≈ marks a conversion by molar mass, not a printed value.

Legend:
Conditions in all cases: Homo sapiens
HuT78 [1] = test: Inhibition of proliferation of HUT78 cells.
MT4 [2] = test: Inhibition of proliferation of MT-4 cells.
MT4 [3] = test: Compound was evaluated for inhibition of proliferation of MT-4 cells (in vitro)
HuT78 [4] = test: Compound was evaluated for inhibition of proliferation of HUT78 cells (in vitro)
MT4 [5] = test: Compound was evaluated for inhibition of proliferation of MT-4 cells(in vitro)

Structure (SMILES) | IC50 (HuT78 [1]) [µg/mL] | IC50 (MT4 [2]) [µg/mL] | IC50 (MT4 [3]) [µg/mL] | IC50 (HuT78 [4]) [µg/mL] | IC50 (MT4 [5]) [µg/mL]
C/C(=N\N=C(\N)S)c1cnccn1 | 1.39 (≈ 7.12 µM) | 0.95 (≈ 4.87 µM) | – | – | –
CC/C(=N\N=C(/S)N1CCCCCC1)c1cccnn1 | 0.073 (≈ 0.25 µM) | 0.039 (≈ 0.134 µM) | – | – | –
CC/C(=N\N=C(/S)N1CCCC1)c1cccnn1 | 0.052 (≈ 0.197 µM) | 0.016 (≈ 0.0608 µM) | – | – | –
C/C(=N\N=C(/S)N(C)C)c1ccc(C)nn1 | 0.088 (≈ 0.371 µM) | 0.12 (≈ 0.506 µM) | – | – | –
C/N=C(\S)N/N=C(\C)c1ccncn1 | 0.022 (≈ 0.105 µM) | 0.02 (≈ 0.0956 µM) | – | – | –
C=CCN/C(S)=N/N=C(\C)c1cccnn1 | 2.65 (≈ 11.3 µM) | 1.28 (≈ 5.44 µM) | – | – | –
C/C(=N\N=C(\N)S)c1ccncn1 | 0.82 (≈ 4.2 µM) | 0.14 (≈ 0.717 µM) | – | – | –
C/N=C(\S)N/N=C(\C)c1ccc(C)nn1 | 2.15 (≈ 9.63 µM) | 1.52 (≈ 6.81 µM) | – | – | –
C/C(=N\N=C(\N)S)c1ccc(C)nn1 | 1.58 (≈ 7.55 µM) | 1.49 (≈ 7.12 µM) | – | – | –
N/C(S)=N/N=C/c1cccnn1 | 4.21 (≈ 23.2 µM) | 2.18 (≈ 12 µM) | – | – | –
C/C(=N\N=C(/S)N1CCCC1)c1ccncn1 | 0.00031 (≈ 0.00124 µM) | 0.00026 (≈ 0.00104 µM) | – | – | –
C/C(=N\N=C(/S)N1CCCCCC1)c1ccncn1 | 0.0022 (≈ 0.00793 µM) | 0.016 (≈ 0.0577 µM) | – | – | –
CN(C)/C(S)=N/N=C/c1cccnn1 | 0.11 (≈ 0.526 µM) | 0.11 (≈ 0.526 µM) | – | – | –
C/N=C(\S)N/N=C/c1cccnn1 | 4.52 (≈ 23.1 µM) | 2.42 (≈ 12.4 µM) | – | – | –
C/N=C(\S)N/N=C(\C)c1cccnn1 | 1.86 (≈ 8.89 µM) | 1.62 (≈ 7.74 µM) | – | – | –
C/N=C(\S)N/N=C(\C)c1cnccn1 | 0.88 (≈ 4.2 µM) | 0.46 (≈ 2.2 µM) | – | – | –
C/C(=N\N=C(/S)N(C)C)c1ccncn1 | 0.00065 (≈ 0.00291 µM) | 0.00049 (≈ 0.00219 µM) | – | – | –
C/C(=N\N=C(/S)NCc1ccccn1)c1cccnn1 | 2.01 (≈ 7.02 µM) | 0.87 (≈ 3.04 µM) | – | – | –
C=CCNC(=S)N/N=C/c1cccnn1 | 6.22 (≈ 28.1 µM) | 3.1 (≈ 14 µM) | – | – | –
CC(N/N=C(\S)N1CCCC1)c1cccnn1 (stereo not drawn) | 0.068 (≈ 0.271 µM) | 0.016 (≈ 0.0637 µM) | – | – | –
C/C(=N\N=C(/S)NCc1ccccn1)c1ccc(C)nn1 | 2.82 (≈ 9.39 µM) | 1.64 (≈ 5.46 µM) | – | – | –
C/C(=N\NC(=S)N(C)C)c1cnccn1 | 0.00062 (≈ 0.00278 µM) | 0.00045 (≈ 0.00202 µM) | – | – | –
C/C(=N\NC(=S)N1CCCC1)c1cnccn1 | 0.00049 (≈ 0.00197 µM) | 0.00019 (≈ 0.000762 µM) | – | – | –
C/C(=N\NC(=S)N(C)C)c1ccccn1 | – | – | 0.00011 (≈ 0.000495 µM) | 0.00055 (≈ 0.00247 µM) | –
CC/C(=N\N=C(/S)N1CCCCC1)c1cccnn1 | 0.071 (≈ 0.256 µM) | 0.03 (≈ 0.108 µM) | – | – | –

Structure (SMILES) | IC50 (HuT78 [1]) [µg/mL] | IC50 (MT4 [2]) [µg/mL] | IC50 (MT4 [3]) [µg/mL] | IC50 (HuT78 [4]) [µg/mL] | IC50 (MT4 [5]) [µg/mL]
C/C(=N\N=C(/S)N1CCCCCC1)c1cnccn1 | 0.0083 (≈ 0.0299 µM) | 0.0059 (≈ 0.0213 µM) | – | – | –
C/C(=N\N=C(/S)N1CCCCC1)c1ccncn1 | 0.0037 (≈ 0.014 µM) | 0.0013 (≈ 0.00494 µM) | – | – | –
CC(N/N=C(\S)N1CCCCCC1)c1cccnn1 (stereo not drawn) | 0.04 (≈ 0.143 µM) | 0.028 (≈ 0.1 µM) | – | – | –
C/C(=N\N=C(\N)S)c1cccnn1 | 0.99 (≈ 5.07 µM) | 1.13 (≈ 5.79 µM) | – | – | –
C/C(=N\N=C(/S)N1CCCC1)c1ccc(C)nn1 | 0.073 (≈ 0.277 µM) | 0.036 (≈ 0.137 µM) | – | – | –
CCC/C(=N\N=C(/S)N1CCCC1)c1cccnn1 | 0.068 (≈ 0.245 µM) | 0.036 (≈ 0.13 µM) | – | – | –
CC(N/N=C(\S)N1CC2CCC(CC2)C1)c1cccnn1 (stereo not drawn) | 0.038 (≈ 0.124 µM) | 0.034 (≈ 0.111 µM) | – | – | –
CCC/C(=N\N=C(/S)N1CCCCC1)c1cccnn1 | 0.0023 (≈ 0.00789 µM) | 0.0012 (≈ 0.00412 µM) | – | – | –
C=CCN/C(S)=N/N=C(\C)c1ccncn1 | 0.031 (≈ 0.132 µM) | 0.081 (≈ 0.344 µM) | – | – | –
C/C(=N\N=C(/S)NCc1ccccn1)c1ccncn1 | 0.24 (≈ 0.838 µM) | 0.018 (≈ 0.0629 µM) | – | – | –
C/C(=N\N=C(/S)NCc1ccccn1)c1cnccn1 | 1.11 (≈ 3.88 µM) | 0.041 (≈ 0.143 µM) | – | – | –
C/C(=N\N=C(/S)N(C)C)c1cccnn1 | 0.079 (≈ 0.354 µM) | 0.1 (≈ 0.448 µM) | – | – | –
CCC/C(=N\N=C(/S)N1CC2CCC(CC2)C1)c1cccnn1 | 0.062 (≈ 0.187 µM) | 0.084 (≈ 0.253 µM) | – | – | –
C=CCN/C(S)=N/N=C(\C)c1ccc(C)nn1 | 2.81 (≈ 11.3 µM) | 1.47 (≈ 5.9 µM) | – | – | –
C/C(=N\N=C(/S)N1CCCCCC1)c1ccc(C)nn1 | 0.054 (≈ 0.185 µM) | 0.028 (≈ 0.0961 µM) | – | – | –
C=CCN/C(S)=N/N=C(\C)c1cnccn1 | 0.036 (≈ 0.153 µM) | 0.014 (≈ 0.0595 µM) | – | – | –
C/C(=N\NC(=S)N1CCCCC1)c1cnccn1 | 0.00052 (≈ 0.00197 µM) | 0.00055 (≈ 0.00209 µM) | – | – | –
S=C(NCc1ccccn1)N/N=C/c1cccnn1 | 5.62 (≈ 20.6 µM) | 3.9 (≈ 14.3 µM) | – | – | –
C/C(=N\NC(N)=S)c1ccccn1 | – | – | – | 0.35 (≈ 1.8 µM) | 0.049 (≈ 0.252 µM)
CCC/C(=N\N=C(/S)N1CCCCCC1)c1cccnn1 | 0.098 (≈ 0.321 µM) | 0.088 (≈ 0.288 µM) | – | – | –
CC(N/N=C(\S)N1CCCCC1)c1cccnn1 (stereo not drawn) | 0.074 (≈ 0.279 µM) | 0.033 (≈ 0.124 µM) | – | – | –
C/C(=N\N=C(/S)N1CCCCC1)c1ccc(C)nn1 | 0.055 (≈ 0.198 µM) | 0.019 (≈ 0.0685 µM) | – | – | –
C/C(=N\N=C(/S)N1CC2CCC(CC2)C1)c1ccncn1 | 0.036 (≈ 0.119 µM) | 0.047 (≈ 0.155 µM) | – | – | –
C/C(=N\N=C(/S)N1CC2CCC(CC2)C1)c1cnccn1 | 0.0069 (≈ 0.0227 µM) | 0.0054 (≈ 0.0178 µM) | – | – | –
